This note sets out measurements from patent US6670367B1, “Azinyloxy, and phenoxy-diaryl-carboxylic acid derivatives, their preparation and use as mixed ETA/ETB endothelin receptor antagonists” (Abbott GmbH & Co., KG, priority 1996, dated 2003).

Data set [1] concerns the target T1, human ETA receptor (Homo sapiens, UniProt P25101).
T1 construct: expressed in transfected cells; host or cells: CHO cells (membrane preparation)
T1 sequence (P25101 21-427): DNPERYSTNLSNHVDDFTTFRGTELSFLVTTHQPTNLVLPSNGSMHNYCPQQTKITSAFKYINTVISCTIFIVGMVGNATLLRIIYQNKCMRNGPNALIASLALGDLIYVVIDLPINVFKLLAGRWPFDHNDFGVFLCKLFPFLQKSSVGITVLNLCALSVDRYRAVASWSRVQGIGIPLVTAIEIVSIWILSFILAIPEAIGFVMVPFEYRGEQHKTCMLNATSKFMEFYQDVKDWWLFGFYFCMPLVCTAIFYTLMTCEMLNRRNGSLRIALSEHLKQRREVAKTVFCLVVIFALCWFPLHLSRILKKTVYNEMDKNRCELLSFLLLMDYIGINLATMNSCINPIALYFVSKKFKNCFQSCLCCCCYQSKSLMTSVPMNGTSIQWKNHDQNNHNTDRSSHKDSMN
The data set can be described thus: ETA receptor binding assay (125I-ET1, membranes of receptor-expressing CHO cells). Conditions: cloned human ETA receptor, CHO cell membranes, 25 pM 125I-ET1, 25° C., 30 min. The method, then: (§1) Cloned human ETA or ETB receptor-expressing CHO cells were employed for binding studies.
(§2) The ETA or ETB receptor-expressing CHO cells were grown in DMEM NUT MIX F12 medium (Gibco, No. 21331-020) with 10% fetal calf serum (PAA Laboratories GmbH, Linz, No. A15-022), 1 mM glutamine (Gibco No. 25030-024), 100 U/ml penicillin and 100 μg/ml streptomycin (Gibco, Sigma No. P-0781). After 48 hours, the cells were washed with PBS and incubated with 0.05% trypsin-containing PBS at 37° C. for 5 minutes. Neutralization with medium was then carried out, and the cells were collected by centrifugation at 300×g.
(§3) For the membrane preparation, the cells were adjusted to a concentration of 10^8 cells/ml of buffer (50 mM tris.HCL buffer, pH 7.4) and then disintegrated by ultrasound (Branson Sonifier 250, 40-70 seconds/constant/output 20).
(§4) For the ETA and ETB receptor binding assays, the membranes were suspended in incubation buffer (50 mM tris-HCl, pH 7,4 with 5 mM MnCl2, 40 μg/ml bacitracin and 0.2% BSA) at a concentration of 50 μg of protein per assay mixture, and incubated with 25 pM ^125I-ET1 (ETA receptor assay) or 25 pM ^125I-ET3 (ETB receptor assay) in the presence and absence of test substance at 25° C. The nonspecific binding was determined with 10^−7 M ET1. Filtration was carried out after 30 min through GF/B glassfiber filters (Whatman, England) in a Skatron cell collector (Skatron, Lier, Norway) to separate free and bound radio ligands, and the filters were washed with ice-cold tris-HCl buffer, pH 7.4 with 0.2% BSA. The radioactivity collected on the filters was quantified using a
(§5) Packard 2200 CA liquid scintillation counter.

Data set [2] concerns the target T2, human ETB receptor (Homo sapiens, UniProt P24530).
T2 construct: expressed in transfected cells; host or cells: CHO cells (membrane preparation)
T2 sequence (P24530 27-442): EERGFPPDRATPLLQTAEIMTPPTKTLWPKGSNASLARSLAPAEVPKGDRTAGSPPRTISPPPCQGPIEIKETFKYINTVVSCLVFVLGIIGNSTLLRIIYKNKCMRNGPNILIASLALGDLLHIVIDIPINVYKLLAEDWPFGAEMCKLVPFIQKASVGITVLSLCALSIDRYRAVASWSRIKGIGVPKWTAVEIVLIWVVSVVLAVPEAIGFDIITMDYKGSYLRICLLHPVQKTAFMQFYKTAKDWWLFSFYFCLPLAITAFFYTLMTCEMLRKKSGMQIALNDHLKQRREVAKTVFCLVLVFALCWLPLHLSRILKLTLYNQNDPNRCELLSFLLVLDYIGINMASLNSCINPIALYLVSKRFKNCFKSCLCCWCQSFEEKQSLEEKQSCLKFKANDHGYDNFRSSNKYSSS
In words: ETB receptor binding assay (125I-ET3, membranes of receptor-expressing CHO cells). Conditions: cloned human ETB receptor, CHO cell membranes, 25 pM 125I-ET3, 25° C., 30 min. The method, then:
as §1, §2, §3, §4, §5

SMILES strings stand for the structures.

The compound `Cc1cc(C)nc(OC(C(=O)O)C(O/C=C/Cc2ccccc2)(c2ccccc2)c2ccccc2)n1` (centres unmarked) [Compound I-27, 2-(4,6-Dimethyl-2-pyrimidinyloxy)-3-(3-phenyl-(2E)-propenoxy)-3,3-diphenylpropionic Acid] showed a melting point of 128 to 133 °C. Consider `COc1cc(C)nc(OC(C(=O)O)C(O/C=C/Cc2ccccc2)(c2ccccc2)c2ccccc2)n1` (centres unmarked) [Compound I-44, 2-(4-Methoxy-6-methyl-2-pyrimidinyloxy)-3-(3-phenyl-(2E)-propenoxy)-3,3-diphenylpropionic Acid], for which the melting point lay in the range of 171 to 174 °C.

As to `CCCOc1ccc(CCOC(c2ccccc2)(c2ccccc2)C(Oc2nc(C)cc(OC)n2)C(=O)O)cc1` (centres unmarked) [Compound I-69, 2-(4-Methoxy-6-methyl-2-pyrimidinyloxy)-3-(2-(4-propoxyphenyl)ethoxy)-3,3-diphenylpropionic Acid], the melting point lay within 115 to 119 °C. Consider `CCCCOc1ccc(CCOC(c2ccccc2)(c2ccccc2)C(Oc2nc(C)cc(C)n2)C(=O)O)cc1` (centres unmarked) [Compound I-70, 2-(4,6-Dimethyl-2-pyrimidinyloxy)-3-(2-(4-butoxyphenyl)ethoxy)-3,3-diphenylpropionic Acid], for which the melting point was 122 to 125 °C.

`CCCCOc1ccc(CCOC(c2ccccc2)(c2ccccc2)C(Oc2nc(C)cc(OC)n2)C(=O)O)cc1` (centres unmarked) [Compound I-71, 2-(4-Methoxy-6-methyl-2-pyrimidinyloxy)-3-(2-(4-butoxyphenyl)ethoxy)-3,3-diphenylpropionic Acid] showed a melting point of 118 to 122 °C. For `CCc1ccc(C(OCCc2ccc(OC)c(OC)c2)(c2ccc(CC)cc2)C(Oc2nc(C)cc(OC)n2)C(=O)O)cc1` (centres unmarked) [Compound I-116, 2-(4-Methoxy-6-methyl-2-pyrimidinyloxy)-3-(2-(3,4-dimethoxyphenyl)ethoxy)-3,3-di(4-ethylphenyl)propionic Acid], the inhibition constant Ki in data set [1] and in data set [2] was 35 nM each time.

As for `COc1ccccc1CCOC(c1ccccc1)(c1ccccc1)C(Oc1nc(OC)c2c(n1)OCC2)C(=O)O` (centres unmarked) [Compound I-140], the figures for the inhibition constant Ki in data set [1] and in data set [2] were 575 nM and 460 nM, respectively.

Consider `CCOc1ccc(CCOC(c2ccccc2)(c2ccccc2)C(Oc2nc(C)cc(C)n2)C(=O)O)cc1OC` (centres unmarked) [Compound I-146, 2-(4,6-Dimethyl-2-pyrimidinyloxy)-3-(2-(4-ethoxy-3-methoxyphenyl)ethoxy)-3,3-diphenylpropionic Acid], for which the Ki was found to be 4 nM in data set [1] and 29 nM in data set [2]. `CCc1ccc(C(OCCc2ccc(OC)cc2)(c2ccc(CC)cc2)C(Oc2nc(C)cc(OC)n2)C(=O)O)cc1` (centres unmarked) [Compound I-147, 2-(4-Methoxy-6-methyl-2-pyrimidinyloxy)-3-(2-(4-methoxyphenyl)ethoxy)-3,3-di(4-ethylphenyl)propionic Acid] had a melting point of 150 to 155 °C.

Regarding `CCc1ccc(C(OCCc2ccc(OC)cc2)(c2ccc(CC)cc2)C(Oc2nc(C)cc(C)n2)C(=O)O)cc1` (centres unmarked) [Compound I-148, 2-(4,6-Dimethyl-2-pyrimidinyloxy)-3-(2-(4-methoxyphenyl)ethoxy)-3,3-di(4-ethylphenyl)propionic Acid], the melting point lay within 130 to 133 °C. For `COc1cc(CCOC(c2ccccc2)(c2ccccc2)C(Oc2nc3c(c(OC)n2)CCC3)C(=O)O)cc(OC)c1` (centres unmarked) [Compound I-321], the results for the Ki in data set [1] and in data set [2] were 340 nM and 290 nM, respectively. Regarding `COc1ccc(CCOC(c2ccc(C)cc2)(c2ccc(C)cc2)C(Oc2nc(OC)c3c(n2)OCC3)C(=O)O)cc1` (centres unmarked) [Compound I-355], the inhibition constant Ki in data set [1] came to 132 nM; in data set [2] it was 82 nM. The compound `Cc1cc(C)nc(OC(C(=O)O)C(OCCCc2ccccc2Cl)(c2ccccc2)c2ccccc2)n1` (centres unmarked) [Compound I-384, 2-(4,6-Dimethyl-2-pyrimidinyloxy)-3-(3-(2-chlorophenyl)propoxy)-3,3-diphenylpropionic Acid] displayed a melting point of 172 to 178 °C.

As to `COc1cc(C)nc(OC(C(=O)O)C(OCCc2ccc(C)cc2)(c2ccccc2)c2ccccc2)n1` (centres unmarked) [Compound I-465, 2-(4-Methoxy-6-methyl-2-pyrimidinyloxy)-3-(2-(4-methylphenyl)ethoxy)-3,3-diphenylpropionic Acid], the melting point fell in the range of 145 to 147 °C. `COc1cc(C)nc(OC(C(=O)O)C(OCCc2ccc(OC)c(OC)c2)(c2ccccc2)c2ccccc2)n1` (centres unmarked) [Compound I-482, 2-(4-Methoxy-6-methyl-2-pyrimidinyloxy)-3-(2-(3,4-dimethoxyphenyl)ethoxy)-3,3-diphenylpropionic Acid]: the inhibition constant (Ki) in data set [1] is 2 nM; in data set [2], 14 nM.

Regarding `COc1cc(C)nc(OC(C(=O)O)C(OCCc2ccccc2OC)(c2ccc(Cl)cc2)c2ccc(Cl)cc2)n1` (centres unmarked) [Compound I-487, 2-(4-Methoxy-6-methyl-2-pyrimidinyloxy)-3-(2-(2-methoxyphenyl)ethoxy)-3,3-di(4-chlorophenyl)propionic Acid], the melting point lay within 85 to 90 °C. Take `COc1cc(C)nc(OC(C(=O)O)C(OCCCc2ccccc2)(c2ccccc2)c2ccccc2)n1` (centres unmarked) [Compound I-499, 2-(4-Methoxy-6-methyl-2-pyrimidinyloxy)-3-(3-phenylpropoxy)-3,3-diphenylpropionic Acid]: the Ki in data set [1] was determined as 31 nM; in data set [2] it was 135 nM.

In turn, `COc1ccc(CCCOC(c2ccccc2)(c2ccccc2)C(Oc2nc(C)cc(OC)n2)C(=O)O)cc1` (centres unmarked) [Compound I-554, 2-(4-Methoxy-6-methyl-2-pyrimidinyloxy)-3-(3-(4-methoxyphenyl)propoxy)-3,3-diphenylpropionic Acid] showed a melting point of 160 to 165 °C. `COc1ccc(CCCOC(c2ccccc2)(c2ccccc2)C(Oc2nc(C)cc(C)n2)C(=O)O)cc1` (centres unmarked) [Compound I-555, 2-(4,6-Dimethyl-2-pyrimidinyloxy)-3-(3-(4-methoxyphenyl)propoxy)-3,3-diphenylpropionic Acid] came in with a melting point of 165 to 170 °C.

With `COc1ccc(CCOC(c2ccccc2)(c2ccccc2)C(Oc2nc(C)cc(C)n2)C(=O)O)cc1` (centres unmarked) [Compound I-585, 2-(4,6-Dimethyl-2-pyrimidinyloxy)-3-(2-(4-methoxyphenyl)ethoxy)-3,3-diphenylpropionic Acid], the Ki in data set [1] is 6 nM; in data set [2] it was 23 nM. The compound `COc1cc(C)nc(OC(C(=O)O)C(OCCc2ccc(C)cc2)(c2ccc(Cl)cc2)c2ccc(Cl)cc2)n1` (centres unmarked) [Compound I-710, 2-(4-Methoxy-6-methyl-2-pyrimidinyloxy)-3-(2-(4-methylphenyl)ethoxy)-3,3-di(4-chlorophenyl)propionic Acid] showed a melting point of 90 to 100 °C. For `COc1cc(C)nc(OC(C(=O)O)C(OCCc2ccccc2)(c2ccccc2)c2ccccc2)n1` (centres unmarked) [Compound I-719, 2-(4-Methoxy-6-methyl-2-pyrimidinyloxy)-3-(2-phenylethoxy)-3,3-diphenylpropionic Acid], the melting point is 155 °C (dec.). The same measure, in the same setting: the same measure for `Cc1cc(C)nc(OC(C(=O)O)C(OCCc2ccccc2)(c2ccccc2)c2ccccc2)n1` (centres unmarked) [Compound I-720, 2-(4,6-Dimethyl-2-pyrimidinyloxy)-3-(2-phenylethoxy)-3,3-diphenyl propionic Acid]: 130 to 133 °C. As to `COc1cc(C)nc(OC(C(=O)O)C(OCCc2ccc(Cl)cc2)(c2ccccc2)c2ccccc2)n1` (centres unmarked) [Compound I-746, 2-(4-Methoxy-6-methyl-2-pyrimidinyloxy)-3-(2-(4-chlorophenyl)ethoxy)-3,3-diphenylpropionic Acid], the melting point fell in the range of 93 to 98 °C.
